Source: US9682995B2, “Amino-substituted isothiazoles” (BAYER PHARMA AKTIENGESELLSCHAFT, priority 2013, dated 2017)

Legend:
Test in all cases: Kinase Profiling (KINOMEscan)
Type in all cases: binding
[1] = target: 456 kinases (of these 395 non-mutant kinases) (Homo sapiens, UniProt Q8NG66); details: NEK11; 10 μM
[2] = target: 456 kinases (of these 395 non-mutant kinases) (Homo sapiens, UniProt Q9NRP7); details: STK36; 10 μM
[3] = target: 456 kinases (of these 395 non-mutant kinases) (Homo sapiens, UniProt Q14004); details: CDC2L5; 10 μM
[4] = target: 456 kinases (of these 395 non-mutant kinases) (Homo sapiens, UniProt P30291); details: WEE1; 10 μM
[5] = target: 456 kinases (of these 395 non-mutant kinases) (Homo sapiens, UniProt Q15208); details: NDR1; 10 μM
[6] = target: 456 kinases (of these 395 non-mutant kinases) (Homo sapiens, UniProt Q00526); details: CDK3; 10 μM
[7] = target: 456 kinases (of these 395 non-mutant kinases) (Homo sapiens, UniProt P22455); details: FGFR4; 10 μM
[8] = target: 456 kinases (of these 395 non-mutant kinases) (Homo sapiens, UniProt Q8IWQ3); details: BRSK2; 10 μM
[9] = tested on: 456 kinases (of these 395 non-mutant kinases); details: 10 μM
[10] = target: 456 kinases (of these 395 non-mutant kinases) (Homo sapiens, UniProt Q9UL54); details: TAOK2; 10 μM
[11] = target: 456 kinases (of these 395 non-mutant kinases) (Homo sapiens, UniProt O96017); details: CHEK2; 10 μM
[12] = target: 456 kinases (of these 395 non-mutant kinases) (Homo sapiens, UniProt Q8IY84); details: NIM1; 10 μM
[13] = target: 456 kinases (of these 395 non-mutant kinases) (Homo sapiens, UniProt Q00537); details: PCTK2; 10 μM
[14] = target: 456 kinases (of these 395 non-mutant kinases) (Homo sapiens, UniProt P51955); details: NEK2; 10 μM
[15] = target: 456 kinases (of these 395 non-mutant kinases) (Homo sapiens, UniProt Q9P0L2); details: MARK1; 10 μM
[16] = target: 456 kinases (of these 395 non-mutant kinases) (Homo sapiens, UniProt O14730); details: RIOK3; 10 μM
[17] = target: 456 kinases (of these 395 non-mutant kinases) (Homo sapiens, UniProt Q9NQU5); details: PAK6; 10 μM
[18] = target: 456 kinases (of these 395 non-mutant kinases) (Homo sapiens, UniProt P53667); details: LIMK1; 10 μM
[19] = target: 456 kinases (of these 395 non-mutant kinases) (Homo sapiens, UniProt P42679); details: CTK; 10 μM
[20] = target: 456 kinases (of these 395 non-mutant kinases) (Homo sapiens, UniProt O75747); details: PIK3C2G; 10 μM
[21] = target: 456 kinases (of these 395 non-mutant kinases) (Homo sapiens, UniProt Q9H3Y6); details: SRMS; 10 μM
[22] = target: 456 kinases (of these 395 non-mutant kinases) (Homo sapiens, UniProt O94768); details: DRAK2; 10 μM
[23] = target: 456 kinases (of these 395 non-mutant kinases) (Homo sapiens, UniProt P10721, V559D); details: KIT(V559D); 10 μM
[24] = target: 456 kinases (of these 395 non-mutant kinases) (Homo sapiens, UniProt Q15375); details: EPHA7; 10 μM
[25] = target: 456 kinases (of these 395 non-mutant kinases) (Homo sapiens, UniProt P41743); details: PRKCI; 10 μM
[26] = target: 456 kinases (of these 395 non-mutant kinases) (Homo sapiens, UniProt O43683); details: BUB1; 10 μM
[27] = target: 456 kinases (of these 395 non-mutant kinases) (Homo sapiens, UniProt P21860); details: ERBB3; 10 μM
[28] = target: 456 kinases (of these 395 non-mutant kinases) (Homo sapiens, UniProt P08069); details: IGF1R; 10 μM
[29] = target: 456 kinases (of these 395 non-mutant kinases) (Homo sapiens, UniProt Q9NWZ3); details: IRAK4; 10 μM
[30] = target: 456 kinases (of these 395 non-mutant kinases) (Homo sapiens, UniProt P00533); details: EGFR; 10 μM
[31] = target: 456 kinases (of these 395 non-mutant kinases) (Homo sapiens, UniProt Q16512); details: PKN1; 10 μM
[32] = target: 456 kinases (of these 395 non-mutant kinases) (Homo sapiens, UniProt P23458); details: 10 μM

Sequence of 456 kinases (of these 395 non-mutant kinases) (Homo sapiens, UniProt P41743) (P41743 2-596 limits assumed, change not shown): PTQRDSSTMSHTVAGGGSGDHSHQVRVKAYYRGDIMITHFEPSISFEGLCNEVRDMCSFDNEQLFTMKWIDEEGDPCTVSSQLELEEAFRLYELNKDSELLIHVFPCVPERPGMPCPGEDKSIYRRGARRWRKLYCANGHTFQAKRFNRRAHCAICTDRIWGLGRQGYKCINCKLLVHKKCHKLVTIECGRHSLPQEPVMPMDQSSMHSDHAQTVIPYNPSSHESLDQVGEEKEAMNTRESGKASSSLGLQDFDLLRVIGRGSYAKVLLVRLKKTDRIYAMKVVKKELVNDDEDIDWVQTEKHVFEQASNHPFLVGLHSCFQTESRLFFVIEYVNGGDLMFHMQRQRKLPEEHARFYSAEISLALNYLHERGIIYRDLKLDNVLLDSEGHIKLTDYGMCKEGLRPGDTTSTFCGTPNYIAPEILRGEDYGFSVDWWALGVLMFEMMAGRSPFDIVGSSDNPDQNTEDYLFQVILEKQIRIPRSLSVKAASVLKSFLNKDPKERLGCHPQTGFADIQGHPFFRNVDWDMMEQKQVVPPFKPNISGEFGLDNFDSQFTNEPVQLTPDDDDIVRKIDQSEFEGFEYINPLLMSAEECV
Sequence of 456 kinases (of these 395 non-mutant kinases) (Homo sapiens, UniProt P22455) (P22455 22-802 limits assumed, change not shown): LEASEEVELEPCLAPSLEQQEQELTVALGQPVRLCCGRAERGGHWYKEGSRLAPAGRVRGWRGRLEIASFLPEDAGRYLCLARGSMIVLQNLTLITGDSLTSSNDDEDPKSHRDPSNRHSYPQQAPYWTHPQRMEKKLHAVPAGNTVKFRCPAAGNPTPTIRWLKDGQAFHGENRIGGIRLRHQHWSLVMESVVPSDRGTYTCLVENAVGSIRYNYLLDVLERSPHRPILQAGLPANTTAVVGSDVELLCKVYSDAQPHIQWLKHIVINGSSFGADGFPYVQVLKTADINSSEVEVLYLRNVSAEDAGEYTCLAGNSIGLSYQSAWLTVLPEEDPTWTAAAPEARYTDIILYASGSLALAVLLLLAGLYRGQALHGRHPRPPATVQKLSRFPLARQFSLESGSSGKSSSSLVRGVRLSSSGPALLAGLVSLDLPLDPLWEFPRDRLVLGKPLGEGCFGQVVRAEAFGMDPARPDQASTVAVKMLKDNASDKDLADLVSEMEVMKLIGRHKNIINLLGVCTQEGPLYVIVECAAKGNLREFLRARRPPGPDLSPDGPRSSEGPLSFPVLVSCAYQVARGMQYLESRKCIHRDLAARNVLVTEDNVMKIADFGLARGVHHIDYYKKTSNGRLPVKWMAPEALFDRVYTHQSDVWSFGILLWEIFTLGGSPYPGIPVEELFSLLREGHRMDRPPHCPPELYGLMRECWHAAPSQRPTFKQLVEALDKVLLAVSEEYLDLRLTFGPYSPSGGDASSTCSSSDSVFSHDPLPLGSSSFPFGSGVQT
Sequence of 456 kinases (of these 395 non-mutant kinases) (Homo sapiens, UniProt Q15208) (Q15208 2-465 limits assumed, change not shown): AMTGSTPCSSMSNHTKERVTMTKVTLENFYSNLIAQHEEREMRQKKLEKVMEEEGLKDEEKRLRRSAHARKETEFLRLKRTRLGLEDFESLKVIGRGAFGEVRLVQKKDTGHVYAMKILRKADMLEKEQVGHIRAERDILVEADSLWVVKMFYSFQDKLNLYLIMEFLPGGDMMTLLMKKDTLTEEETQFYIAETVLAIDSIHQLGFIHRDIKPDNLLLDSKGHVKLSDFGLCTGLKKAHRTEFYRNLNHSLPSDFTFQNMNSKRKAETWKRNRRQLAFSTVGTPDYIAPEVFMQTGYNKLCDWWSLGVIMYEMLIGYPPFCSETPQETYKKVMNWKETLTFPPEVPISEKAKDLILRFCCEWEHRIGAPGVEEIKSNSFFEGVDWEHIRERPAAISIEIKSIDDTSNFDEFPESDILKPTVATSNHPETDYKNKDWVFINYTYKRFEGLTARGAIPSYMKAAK
Sequence of 456 kinases (of these 395 non-mutant kinases) (Homo sapiens, UniProt P00533) (P00533 25-1210 limits assumed, change not shown): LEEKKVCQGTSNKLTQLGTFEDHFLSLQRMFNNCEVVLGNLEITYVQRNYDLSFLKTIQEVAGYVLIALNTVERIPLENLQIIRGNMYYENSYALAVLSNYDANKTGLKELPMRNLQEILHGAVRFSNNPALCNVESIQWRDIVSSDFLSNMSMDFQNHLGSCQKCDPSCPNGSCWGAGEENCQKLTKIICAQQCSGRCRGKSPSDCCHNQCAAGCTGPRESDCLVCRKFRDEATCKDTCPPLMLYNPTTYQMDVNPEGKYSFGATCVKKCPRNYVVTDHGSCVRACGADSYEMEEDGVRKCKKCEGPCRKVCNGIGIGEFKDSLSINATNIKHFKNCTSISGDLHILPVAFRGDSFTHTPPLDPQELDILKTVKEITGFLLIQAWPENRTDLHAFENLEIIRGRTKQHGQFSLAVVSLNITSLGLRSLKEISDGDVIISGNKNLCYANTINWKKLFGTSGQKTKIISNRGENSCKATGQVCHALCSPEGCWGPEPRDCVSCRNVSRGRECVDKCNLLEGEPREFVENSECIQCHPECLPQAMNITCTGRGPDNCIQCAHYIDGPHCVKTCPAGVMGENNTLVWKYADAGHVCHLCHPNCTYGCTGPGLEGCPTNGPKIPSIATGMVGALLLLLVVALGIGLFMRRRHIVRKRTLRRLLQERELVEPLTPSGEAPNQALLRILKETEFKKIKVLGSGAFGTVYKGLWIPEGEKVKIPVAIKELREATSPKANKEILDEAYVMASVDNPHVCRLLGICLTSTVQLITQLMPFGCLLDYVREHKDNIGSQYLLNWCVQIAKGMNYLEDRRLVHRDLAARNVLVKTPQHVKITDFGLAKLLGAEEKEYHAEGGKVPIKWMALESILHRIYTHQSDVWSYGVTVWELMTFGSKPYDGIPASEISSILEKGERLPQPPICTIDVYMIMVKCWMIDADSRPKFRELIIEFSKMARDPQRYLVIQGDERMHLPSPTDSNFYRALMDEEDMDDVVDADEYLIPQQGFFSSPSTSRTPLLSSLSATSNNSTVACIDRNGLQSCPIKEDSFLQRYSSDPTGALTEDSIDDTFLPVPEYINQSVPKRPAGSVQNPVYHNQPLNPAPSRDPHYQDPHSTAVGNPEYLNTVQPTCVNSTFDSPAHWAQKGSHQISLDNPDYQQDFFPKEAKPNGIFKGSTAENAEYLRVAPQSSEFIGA
Sequence of 456 kinases (of these 395 non-mutant kinases) (Homo sapiens, UniProt Q16512) (Q16512 2-942 limits assumed, change not shown): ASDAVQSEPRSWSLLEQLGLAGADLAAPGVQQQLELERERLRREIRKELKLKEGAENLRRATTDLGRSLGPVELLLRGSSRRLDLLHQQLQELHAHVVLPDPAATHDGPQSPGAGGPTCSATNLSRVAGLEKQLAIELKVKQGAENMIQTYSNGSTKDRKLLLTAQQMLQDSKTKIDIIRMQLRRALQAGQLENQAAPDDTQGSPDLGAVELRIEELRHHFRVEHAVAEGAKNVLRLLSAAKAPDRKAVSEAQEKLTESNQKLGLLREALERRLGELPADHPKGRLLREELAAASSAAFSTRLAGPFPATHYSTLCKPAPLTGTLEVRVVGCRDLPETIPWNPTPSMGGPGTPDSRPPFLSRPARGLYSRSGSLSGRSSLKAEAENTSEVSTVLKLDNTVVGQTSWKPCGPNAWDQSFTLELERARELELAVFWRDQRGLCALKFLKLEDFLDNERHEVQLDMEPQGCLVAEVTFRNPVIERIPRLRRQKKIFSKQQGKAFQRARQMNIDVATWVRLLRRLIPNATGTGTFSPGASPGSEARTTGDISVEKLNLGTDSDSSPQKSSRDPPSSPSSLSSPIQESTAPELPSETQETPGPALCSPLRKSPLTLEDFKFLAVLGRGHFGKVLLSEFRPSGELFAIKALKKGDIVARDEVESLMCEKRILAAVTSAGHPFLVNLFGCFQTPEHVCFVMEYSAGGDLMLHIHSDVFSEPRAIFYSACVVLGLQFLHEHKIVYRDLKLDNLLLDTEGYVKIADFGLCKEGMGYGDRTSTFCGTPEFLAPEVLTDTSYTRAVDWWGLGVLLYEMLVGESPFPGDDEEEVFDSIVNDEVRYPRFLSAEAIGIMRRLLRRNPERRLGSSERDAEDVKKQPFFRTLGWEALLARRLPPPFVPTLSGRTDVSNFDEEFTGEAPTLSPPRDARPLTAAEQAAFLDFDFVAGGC
Sequence of 456 kinases (of these 395 non-mutant kinases) (Homo sapiens, UniProt P10721, V559D) (P10721 26-976 V559D limits assumed): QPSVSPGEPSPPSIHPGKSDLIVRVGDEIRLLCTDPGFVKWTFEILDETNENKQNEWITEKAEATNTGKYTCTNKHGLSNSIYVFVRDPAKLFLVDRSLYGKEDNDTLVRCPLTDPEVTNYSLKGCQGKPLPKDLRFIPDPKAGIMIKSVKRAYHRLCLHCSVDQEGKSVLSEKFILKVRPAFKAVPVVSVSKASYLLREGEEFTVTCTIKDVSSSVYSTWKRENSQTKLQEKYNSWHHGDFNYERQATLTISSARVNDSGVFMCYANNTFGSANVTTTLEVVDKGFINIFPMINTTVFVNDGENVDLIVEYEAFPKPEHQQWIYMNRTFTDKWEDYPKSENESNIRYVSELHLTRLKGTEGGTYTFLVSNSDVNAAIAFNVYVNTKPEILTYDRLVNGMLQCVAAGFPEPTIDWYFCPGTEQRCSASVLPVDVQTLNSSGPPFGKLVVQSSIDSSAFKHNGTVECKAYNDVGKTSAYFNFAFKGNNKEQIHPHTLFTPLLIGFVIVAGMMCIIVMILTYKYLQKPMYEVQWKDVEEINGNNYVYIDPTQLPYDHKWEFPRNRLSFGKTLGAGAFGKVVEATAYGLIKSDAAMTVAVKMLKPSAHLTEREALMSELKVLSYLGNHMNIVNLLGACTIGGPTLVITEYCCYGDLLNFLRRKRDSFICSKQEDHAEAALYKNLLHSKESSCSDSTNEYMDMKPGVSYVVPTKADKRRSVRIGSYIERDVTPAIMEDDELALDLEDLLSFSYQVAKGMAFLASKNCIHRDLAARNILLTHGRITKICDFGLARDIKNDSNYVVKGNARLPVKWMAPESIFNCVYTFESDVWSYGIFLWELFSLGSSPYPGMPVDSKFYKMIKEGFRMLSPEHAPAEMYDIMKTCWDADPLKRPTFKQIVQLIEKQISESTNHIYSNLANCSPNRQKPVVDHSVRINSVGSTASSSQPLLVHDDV

## CCc1ccccc1NC(=O)c1c(C)nsc1Nc1cnc2cc(F)ccc2n1 [Example 20, N-(2-Ethylphenyl)-5-[(6-fluoroquinoxalin-2-yl)amino]-3-methyl-1,2-thiazole-4-carboxamide]
[1]
  % Ctrl @ 10 μM: 92 % Ctrl
[2]
  % Ctrl @ 10 μM: 75 % Ctrl
[3]
  % Ctrl @ 10 μM: 100 % Ctrl
[4]
  % Ctrl @ 10 μM: 100 % Ctrl
[5]
  % Ctrl @ 10 μM: 100 % Ctrl
[6]
  % Ctrl @ 10 μM: 100 % Ctrl
[7]
  % Ctrl @ 10 μM: 77 % Ctrl
[8]
  % Ctrl @ 10 μM: 100 % Ctrl
[9]; EGFR(L747-E749del, A750P)
  % Ctrl @ 10 μM: 94 % Ctrl
[9]; EGFR(L747-S752del, P753S)
  % Ctrl @ 10 μM: 100 % Ctrl
[9]; EGFR(L747-T751del,Sins)
  % Ctrl @ 10 μM: 100 % Ctrl
[9]; FLT3(ITD)
  % Ctrl @ 10 μM: 67 % Ctrl
[10]
  % Ctrl @ 10 μM: 100 % Ctrl
[11]
  % Ctrl @ 10 μM: 100 % Ctrl
[12]
  % Ctrl @ 10 μM: 77 % Ctrl
[13]
  % Ctrl @ 10 μM: 100 % Ctrl
[14]
  % Ctrl @ 10 μM: 100 % Ctrl
[15]
  % Ctrl @ 10 μM: 97 % Ctrl
[16]
  % Ctrl @ 10 μM: 91 % Ctrl
[17]
  % Ctrl @ 10 μM: 100 % Ctrl
[18]
  % Ctrl @ 10 μM: 90 % Ctrl
[19]
  % Ctrl @ 10 μM: 61 % Ctrl
[20]
  % Ctrl @ 10 μM: 86 % Ctrl
[21]
  % Ctrl @ 10 μM: 100 % Ctrl
[22]
  % Ctrl @ 10 μM: 93 % Ctrl
[23]
  % Ctrl @ 10 μM: 61 % Ctrl
[24]
  % Ctrl @ 10 μM: 100 % Ctrl
[25]
  % Ctrl @ 10 μM: 100 % Ctrl
[26]
  % Ctrl @ 10 μM: 100 % Ctrl
[27]
  % Ctrl @ 10 μM: 99 % Ctrl
[28]
  % Ctrl @ 10 μM: 100 % Ctrl
[29]
  % Ctrl @ 10 μM: 100 % Ctrl
[30]
  % Ctrl @ 10 μM: 98 % Ctrl
[31]
  % Ctrl @ 10 μM: 61 % Ctrl
[32]; JAK1(JH1domain-catalytic)
  % Ctrl @ 10 μM: 100 % Ctrl
[32]; JAK1(JH2domain-pseudokinase)
  % Ctrl @ 10 μM: 71 % Ctrl
